Reference: publication PMC13266984 (Journal of medicinal chemistry, 2026)

Columns and labels:
[1] = biological target: T1, OE19 (3A1) (Homo sapiens, UniProt P30838); assay: Cellular ALDEFLUOR assay in OE19 cells (preferential ALDH3A1 expression); conditions: for Cell_Efficacy: Table S4, OE19 cells; for Cell_CC-v2: Table S4, cellular curve class
T1 sequence (P30838 1-453): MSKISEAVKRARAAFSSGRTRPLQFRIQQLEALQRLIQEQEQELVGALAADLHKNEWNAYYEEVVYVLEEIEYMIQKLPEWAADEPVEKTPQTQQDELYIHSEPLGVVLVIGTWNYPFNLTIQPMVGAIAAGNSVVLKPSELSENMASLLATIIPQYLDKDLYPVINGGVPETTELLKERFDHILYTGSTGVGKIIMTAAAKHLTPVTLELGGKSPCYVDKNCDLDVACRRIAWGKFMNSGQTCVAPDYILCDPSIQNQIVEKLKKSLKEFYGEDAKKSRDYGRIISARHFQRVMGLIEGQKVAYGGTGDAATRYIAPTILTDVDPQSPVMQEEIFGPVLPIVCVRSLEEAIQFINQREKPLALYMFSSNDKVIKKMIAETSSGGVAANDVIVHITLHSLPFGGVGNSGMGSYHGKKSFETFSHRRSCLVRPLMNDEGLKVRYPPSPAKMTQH

[2] = biological target: T2, Human ALDH3A1 (Homo sapiens, UniProt P30838); assay: ALDH3A1 biochemical assay (benzaldehyde/NADP+, diaphorase-resazurin readout, 1,536-well); conditions: for Efficacy: Table S4, biochemical; for CC-v2: Table S4, biochemical curve class
T2 sequence (P30838 1-453): T1 sequence (P30838 1-453)

Compound | AC50 [1] [µM] | Cell_Efficacy [1] | Cell_CC-v2 [1] | AC50 [2] [µM] | Efficacy [2] | CC-v2 [2]
Cc1cccc(CNC(=O)c2csc(N3CCN(c4cccc([S+](=O)([O-])C(F)(F)F)c4)CC3)n2)c1 [NCGC01210726-01] | 15.7 | -81.37 | -1.2 | 18.2 | -54.32 | -1.2
COc1ccccc1N1CCN(c2nc(C(=O)NCc3cccc(C)c3)cs2)CC1 [NCGC01210996-01] | 0.05 | -98.32 | -1.3 | 0.91 | -91.28 | -1.1
Cc1cccc(CNC(=O)c2csc(N3CCN(c4cccc(OCc5ccc(Cl)cc5)c4)CC3)n2)c1 [NCGC01211114-01] | 1.57 | -79.67 | -1.1 | 0.46 | -48.74 | -1.2
COC(=O)c1ccc(N2CCN(c3nc(C(=O)NCc4cccc(C)c4)cs3)CC2)cc1 [NCGC01211115-01] | 0.99 | -81.24 | -1.1 | 1.29 | -72.39 | -1.2
Cc1cccc(CNC(=O)c2csc(N3CCN(c4cccc(O)c4)CC3)n2)c1 [NCGC01211119-01] | 15.7 | -77.14 | -1.2 | 2.57 | -61.43 | -1.2
Cc1cccc(CNC(=O)c2csc(N3CCN(c4ccc(Cl)c(Cl)c4)CC3)n2)c1 [NCGC01211120-01] | 0.79 | -88.59 | -1.1 | 0.51 | -83.25 | -1.1
Cc1cccc(CNC(=O)c2csc(N3CCN(c4ccccc4Cl)CC3)n2)c1 [NCGC01211121-01] | 12.4 | -81.66 | -1.3 | 0.91 | -88.53 | -1.1
COc1c(F)cc(N2CCN(c3nc(C(=O)NCc4cccc(C)c4)cs3)CC2)cc1F [NCGC01211123-01] | 1.76 | -94.45 | -1.2 | 0.58 | -77.80 | -1.2
Cc1cccc(CNC(=O)c2csc(N3CCN(c4ccc(O)cc4)CC3)n2)c1 [NCGC01211126-01] | 15.7 | -68.34 | -1.2 | 5.76 | -62.10 | -1.2
Cc1cccc(CNC(=O)c2csc(N3CCN(c4ccccc4F)CC3)n2)c1 [NCGC01211127-01] | 4.95 | -89.89 | -1.1 | 1.02 | -98.80 | -1.1
CCc1ccc(N2CCN(c3nc(C(=O)NCc4cccc(C)c4)cs3)CC2)cc1 [NCGC01211128-01] | 3.13 | -86.59 | -1.1 | 0.91 | -85.15 | -1.1
Cc1cccc(CNC(=O)c2csc(N3CCN(c4c(Cl)cccc4Cl)CC3)n2)c1 [NCGC01211131-01] | 3.13 | -61.19 | -1.4 | 0.51 | -89.06 | -1.1
Cc1cccc(CNC(=O)c2csc(N3CCN(c4cc(F)cc(F)c4)CC3)n2)c1 [NCGC01211133-01] | 1.57 | -95.95 | -1.1 | 0.65 | -87.41 | -1.1
Cc1cccc(CNC(=O)c2csc(N3CCN(c4ccccc4C)CC3)n2)c1 [NCGC01211138-01] | 7.85 | -88.54 | -1.1 | 1.45 | -88.86 | -1.1
Cc1cccc(CNC(=O)c2csc(N3CCN(c4ccc(Br)cc4)CC3)n2)c1 [NCGC01211165-01] | 0.7 | -91.24 | -1.1 | 0.81 | -72.77 | -1.2
Cc1cccc(CNC(=O)c2csc(N3CCN(c4ccc([S+](=O)([O-])F)cc4)CC3)n2)c1 [NCGC01211171-01] | 1.97 | -83.98 | -1.1 | 1.15 | -53.27 | -1.2
